Test results from patent publication US10584128B2, “Bicyclic dihydropyrimidine-carboxamide derivatives as Rho-Kinase inhibitors” (CHIESI FARMACEUTICI S.p.A., priority 2016, dated 2020).

How the values were obtained:
Rho kinase 1 = Rho kinase 1 (Homo sapiens, UniProt Q13464); test: In vitro Rho kinase inhibitory activity assay (ADP-Glo kit, Myelin Basic Protein substrate); type: biochemical; settings: 10 μM ATP, 25° C., read-out: ROCK1 inhibitory activity (Ki, range of activity)
How it was run: (§1)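 Kinase activity is measured as ADP production (ADP-Glo, luminescence) after 1 hour at 25 °C with 10 μM ATP and 2.5 μM Myelin Basic Protein, following 30 min enzyme–compound preincubation. Buffer is 40 mM Tris pH7.5, 20 mM MgCl2, 0.1 mg/ml BSA, 50 μM DTT.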

Rho kinase 2 = Rho kinase 2 (Homo sapiens, UniProt O75116); test: as above; type: biochemical; settings: 10 μM ATP, 25° C., read-out: ROCK2 inhibitory activity (Ki, range of activity)
Sequence of Rho kinase 2 (O75116 whole entry): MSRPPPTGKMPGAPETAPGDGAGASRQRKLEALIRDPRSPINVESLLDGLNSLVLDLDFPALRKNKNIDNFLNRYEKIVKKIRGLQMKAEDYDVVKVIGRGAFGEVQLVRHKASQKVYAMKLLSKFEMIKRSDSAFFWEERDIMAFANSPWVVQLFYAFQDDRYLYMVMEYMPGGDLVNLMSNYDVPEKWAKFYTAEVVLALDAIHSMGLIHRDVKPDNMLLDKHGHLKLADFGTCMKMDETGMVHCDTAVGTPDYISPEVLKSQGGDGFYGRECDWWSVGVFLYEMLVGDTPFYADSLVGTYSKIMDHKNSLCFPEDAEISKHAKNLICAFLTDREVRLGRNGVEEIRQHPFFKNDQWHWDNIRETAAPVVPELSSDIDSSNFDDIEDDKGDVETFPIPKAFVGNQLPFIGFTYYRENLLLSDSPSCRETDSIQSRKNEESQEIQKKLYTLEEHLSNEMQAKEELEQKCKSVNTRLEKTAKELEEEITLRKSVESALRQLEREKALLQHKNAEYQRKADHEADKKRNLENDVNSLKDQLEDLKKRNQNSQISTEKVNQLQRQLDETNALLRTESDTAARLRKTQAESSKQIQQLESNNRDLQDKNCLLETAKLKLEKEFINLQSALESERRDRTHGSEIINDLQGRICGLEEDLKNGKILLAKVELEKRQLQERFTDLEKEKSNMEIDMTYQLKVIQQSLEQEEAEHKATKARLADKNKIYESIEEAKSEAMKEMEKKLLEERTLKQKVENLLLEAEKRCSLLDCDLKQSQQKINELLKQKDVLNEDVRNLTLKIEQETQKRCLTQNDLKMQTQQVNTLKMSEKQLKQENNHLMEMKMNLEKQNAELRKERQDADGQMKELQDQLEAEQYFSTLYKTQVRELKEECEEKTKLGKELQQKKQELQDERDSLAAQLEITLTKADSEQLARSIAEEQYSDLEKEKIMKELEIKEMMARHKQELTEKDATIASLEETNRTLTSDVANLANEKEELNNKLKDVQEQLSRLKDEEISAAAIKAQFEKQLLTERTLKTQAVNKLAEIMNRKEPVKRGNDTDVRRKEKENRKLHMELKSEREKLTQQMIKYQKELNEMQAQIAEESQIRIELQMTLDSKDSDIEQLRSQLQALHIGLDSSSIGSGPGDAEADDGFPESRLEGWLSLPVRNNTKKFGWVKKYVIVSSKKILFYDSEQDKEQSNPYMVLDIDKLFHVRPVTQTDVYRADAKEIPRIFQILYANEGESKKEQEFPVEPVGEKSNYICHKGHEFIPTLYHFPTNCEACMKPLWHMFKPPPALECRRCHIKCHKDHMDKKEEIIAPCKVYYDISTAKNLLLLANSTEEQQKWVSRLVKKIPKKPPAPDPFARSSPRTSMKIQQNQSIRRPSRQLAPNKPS
How it was run: as §1

Sequence of Rho kinase 1 (Q13464 whole entry): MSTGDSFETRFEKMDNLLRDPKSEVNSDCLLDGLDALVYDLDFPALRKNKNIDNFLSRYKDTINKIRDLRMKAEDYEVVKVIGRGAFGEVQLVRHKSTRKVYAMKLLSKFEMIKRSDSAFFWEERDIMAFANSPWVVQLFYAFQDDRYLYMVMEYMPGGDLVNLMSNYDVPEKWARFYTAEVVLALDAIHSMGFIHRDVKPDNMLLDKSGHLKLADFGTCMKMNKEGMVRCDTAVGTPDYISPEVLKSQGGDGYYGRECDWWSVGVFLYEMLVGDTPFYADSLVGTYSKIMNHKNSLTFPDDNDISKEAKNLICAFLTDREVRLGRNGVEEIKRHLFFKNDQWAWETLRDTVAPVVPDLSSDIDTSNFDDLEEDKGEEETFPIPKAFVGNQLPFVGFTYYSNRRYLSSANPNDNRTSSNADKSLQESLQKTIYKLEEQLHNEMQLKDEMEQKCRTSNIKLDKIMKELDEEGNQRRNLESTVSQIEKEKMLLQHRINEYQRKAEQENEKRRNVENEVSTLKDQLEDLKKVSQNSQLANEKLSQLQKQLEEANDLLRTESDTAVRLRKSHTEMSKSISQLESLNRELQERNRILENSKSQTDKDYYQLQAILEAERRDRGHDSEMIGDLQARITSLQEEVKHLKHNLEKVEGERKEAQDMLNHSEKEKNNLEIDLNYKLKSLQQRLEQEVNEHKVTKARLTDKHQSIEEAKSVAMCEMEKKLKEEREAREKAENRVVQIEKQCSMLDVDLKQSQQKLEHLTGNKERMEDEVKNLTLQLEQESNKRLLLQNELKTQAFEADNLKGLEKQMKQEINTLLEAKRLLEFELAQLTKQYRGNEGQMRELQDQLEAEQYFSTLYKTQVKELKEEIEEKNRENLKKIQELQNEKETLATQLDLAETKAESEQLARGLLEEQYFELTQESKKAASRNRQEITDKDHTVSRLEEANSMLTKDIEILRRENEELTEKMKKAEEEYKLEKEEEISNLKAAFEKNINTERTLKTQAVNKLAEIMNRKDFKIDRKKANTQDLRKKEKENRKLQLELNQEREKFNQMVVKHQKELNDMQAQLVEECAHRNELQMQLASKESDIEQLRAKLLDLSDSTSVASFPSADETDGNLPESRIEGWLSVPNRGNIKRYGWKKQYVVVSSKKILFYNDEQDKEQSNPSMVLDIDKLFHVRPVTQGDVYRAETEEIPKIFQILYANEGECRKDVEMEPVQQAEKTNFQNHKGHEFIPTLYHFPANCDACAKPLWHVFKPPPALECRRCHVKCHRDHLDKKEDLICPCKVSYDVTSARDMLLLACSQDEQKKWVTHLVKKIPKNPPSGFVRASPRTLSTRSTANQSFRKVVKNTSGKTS

Compound | Ki (Rho kinase 1) [nM] | Ki (Rho kinase 2) [nM]
CC1=C(C(=O)Nc2ccc3cnccc3c2)C(c2ccc(C(F)(F)F)c(F)c2)n2nc(NC(=O)c3ccc(CN(C)C)cc3)cc2N1 (single isomer, unassigned) [Example 137B, 2-(4-((Dimethylamino)methyl)benzamido)-7-(3-fluoro-4-(trifluoromethyl)-phenyl)-N-(isoquinolin-6-yl)-5-methyl-4,7-dihydropyrazolo[1,5-a]pyrimidine-6-carboxamide] | < 50 | < 50
COCc1cc2n(n1)C(c1ccc(C(F)(F)F)cc1)C(C(=O)Nc1ccc3[nH]ncc3c1)=C(C)N2 (centres unmarked) [Example 35, N-(1H-indazol-5-yl)-2-(methoxymethyl)-5-methyl-7-(4-(trifluoromethyl)phenyl)-4,7-dihydropyrazolo[1,5-a]pyrimidine-6-carboxamide] | < 50 | < 50
CC1=C(C(=O)Nc2ccc3cnccc3c2)C(c2ccc(C(F)(F)F)c(F)c2)n2nc(NC(=O)CCN3CCCCC3)cc2N1 (centres unmarked) [Example 131, 7-(3-Fluoro-4-(trifluoromethyl)phenyl)-N-(isoquinolin-6-yl)-5-methyl-2-(3-(piperidin-1-yl)propanamido)-4,7-dihydropyrazolo[1,5-a]pyrimidine-6-carboxamide] | < 50 | < 50
CCOC(=O)c1cc2n(n1)C(c1ccc(C(F)(F)F)c(F)c1)C(C(=O)Nc1cc3cnccc3s1)=C(C)N2 (centres unmarked) [Example 41, Ethyl 7-(3-fluoro-4-(trifluoromethyl)phenyl)-5-methyl-6-(thieno[3,2-c]pyridin-2-ylcarbamoyl)-4,7-dihydropyrazolo[1,5-a]pyrimidine-2-carboxylate] | > 500 | 50 to 500
CCOC(=O)c1cc2n(n1)C(c1nc3ccccc3s1)C(C(=O)Nc1ccc3cnccc3c1)=C(C)N2 (centres unmarked) [Example 8, ethyl 7-(benzo[d]thiazol-2-yl)-6-(isoquinolin-6-ylcarbamoyl)-5-methyl-4,7-dihydropyrazolo[1,5-a]pyrimidine-2-carboxylate] | < 50 | < 50
CC1=C(C(=O)Nc2ccc3[nH]ncc3c2)C(c2ccc(C(F)(F)F)cc2)n2nc(C(=O)N3CCN(C)CC3)cc2N1 (centres unmarked) [Example 76, N-(1H-indazol-5-yl)-5-methyl-2-(4-methylpiperazine-1-carbonyl)-7-(4-(trifluoromethyl)phenyl)-4,7-dihydropyrazolo[1,5-a]pyrimidine-6-carboxamide] | < 50 | < 50
CC1=C(C(=O)Nc2ccc3cnccc3n2)C(c2ccc(C(F)(F)F)c(F)c2)n2nc(CN(C)C)cc2N1 (centres unmarked) [Example 123, 2-((dimethylamino)methyl)-7-(3-fluoro-4-(trifluoromethyl)phenyl)-5-methyl-N-(1,6-naphthyridin-2-yl)-4,7-dihydropyrazolo[1,5-a]pyrimidine-6-carboxamide] | < 50 | < 50
CC1=C(C(=O)Nc2ccc3cnccc3c2)C(c2ccc(C(F)(F)F)c(F)c2)n2nc(C3CCN(C(=O)CCN4CCCCC4)CC3)cc2N1 (single isomer, unassigned) [135B] | < 50 | < 50
COCCN(C)Cc1cc2n(n1)C(c1ccc(C(F)(F)F)c(F)c1)C(C(=O)Nc1ccc3cnccc3c1)=C(C)N2 (centres unmarked) [Example 98, 7-(3-fluoro-4-(trifluoromethyl)phenyl)-N-(isoquinolin-6-yl)-2-(((2-methoxyethyl)(methyl)amino)methyl)-5-methyl-4,7-dihydropyrazolo[1,5-a]pyrimidine-6-carboxamide] | < 50 | < 50
CC1=C(C(=O)Nc2ccc3[nH]ncc3c2)C(c2ccc(C(F)(F)F)cc2)n2nc(CO)cc2N1 (single isomer, unassigned) [Example 69A, 2-(hydroxymethyl)-N-(1H-indazol-5-yl)-5-methyl-7-(4-(trifluoromethyl)phenyl)-4,7-dihydropyrazolo[1,5-a]pyrimidine-6-carboxamide] | 50 to 500 | 50 to 500
CCOC(=O)c1cc2n(n1)C(C1CCOCC1)C(C(=O)Nc1ccc3[nH]ncc3c1)=C(C)N2 (centres unmarked) [Example 11, ethyl 6-((1H-indazol-5-yl)carbamoyl)-5-methyl-7-(tetrahydro-2H-pyran-4-yl)-4,7-dihydropyrazolo[1,5-a]pyrimidine-2-carboxylate] | 50 to 500 | 50 to 500
CCOC(=O)c1cc2n(n1)C(c1ccc(C(F)(F)F)c(F)c1)C(C(=O)Nc1ccc3cnccc3n1)=C(C)N2 (centres unmarked) [Example 113, ethyl 6-((1,6-naphthyridin-2-yl)carbamoyl)-7-(3-fluoro-4-(trifluoromethyl)phenyl)-5-methyl-4,7-dihydropyrazolo[1,5-a]pyrimidine-2-carboxylate] | < 50 | < 50
CC1=C(C(=O)Nc2ccc3[nH]ncc3c2)C(c2ccc(Cl)nc2)n2nc(CO)cc2N1 (centres unmarked) [Example 70, 7-(6-chloropyridin-3-yl)-2-(hydroxymethyl)-N-(1H-indazol-5-yl)-5-methyl-4,7-dihydropyrazolo[1,5-a]pyrimidine-6-carboxamide] | < 50 | < 50
CC1=C(C(=O)Nc2ccc3cnccc3c2)C(c2ccc(C(F)(F)F)c(F)c2)n2nc(C(=O)N(C)C)cc2N1 (centres unmarked) [Example 126, 7-(3-fluoro-4-(trifluoromethyl)phenyl)-N6-(isoquinolin-6-yl)-N2,N2,5-trimethyl-4,7-dihydropyrazolo[1,5-a]pyrimidine-2,6-dicarboxamide] | < 50 | < 50
CC1=C(C(=O)Nc2ccc3[nH]ncc3c2)C(c2ccc(Cl)cc2F)n2nc(CO)cc2N1 (centres unmarked) [Example 68, 7-(4-chloro-2-fluorophenyl)-2-(hydroxymethyl)-N-(1H-indazol-5-yl)-5-methyl-4,7-dihydropyrazolo[1,5-a]pyrimidine-6-carboxamide] | < 50 | < 50
CC1=C(C(=O)Nc2ccc3cnccc3c2)C(c2ccc(C(F)(F)F)c(F)c2)n2nc(C(=O)N(C)CCN3CCCCC3)cc2N1 (single isomer, unassigned) [Example 78B, 7-(3-fluoro-4-(trifluoromethyl)phenyl)-N6-(isoquinolin-6-yl)-N2,5-dimethyl-N2-(2-(piperidin-1-yl)ethyl)-4,7-dihydropyrazolo[1,5-a]pyrimidine-2,6-dicarboxamide] | < 50 | < 50
CC1=C(C(=O)Nc2ccc3cnccc3c2)C(c2ccc(C(F)(F)F)c(F)c2)n2nc(C(=O)NCCN3CCCCC3)nc2N1 (centres unmarked) [Example 129, 7-(3-fluoro-4-(trifluoromethyl)phenyl)-N6-(isoquinolin-6-yl)-5-methyl-N2-(2-(piperidin-1-yl)ethyl)-4,7-dihydro-[1,2,4]triazolo[1,5-a]pyrimidine-2,6-dicarboxamide] | < 50 | < 50
COCc1cc2n(n1)C(c1ccc(C(F)(F)F)c(F)c1)C(C(=O)Nc1ccc3cnccc3c1)=C(C)N2 (centres unmarked) [Example 36, 7-(3-fluoro-4-(trifluoromethyl)phenyl)-N-(isoquinolin-6-yl)-2-(methoxymethyl)-5-methyl-4,7-dihydropyrazolo[1,5-a]pyrimidine-6-carboxamide] | < 50 | < 50
CC1=C(C(=O)Nc2ccc3cnccc3c2)C(c2ccc(C(F)(F)F)c(F)c2)n2nc(CNC(=O)CCN3CCCCC3)cc2N1 (single isomer, unassigned) [Example 138A, 7-(3-Fluoro-4-(trifluoromethyl)phenyl)-N-(isoquinolin-6-yl)-5-methyl-2-((3-(piperidin-1-yl)propanamido)methyl)-4,7-dihydropyrazolo[1,5-a]pyrimidine-6-carboxamide] | < 50 | < 50
